Assays:
urethra-closing response = assay: MT (threshold inducing urethra-closing response) under transcranial magnetic stimulation in healthy female volunteers; type: in vivo, human
Description: The test subjects were healthy female volunteers having a body weight of at least 45 kg (average: 50.91 kg, standard deviation: 3.346) and a BMI value of 18.5 kg/m^2 to 25.0 kg/m^2 (average: 19.57 kg/m^2, standard deviation: 0.929).
A washout period of at least 7 days was provided between the treatments.
A capsule containing 40 mg of duloxetine was orally administered as duloxetine together with water. A placebo capsule containing saccharose and spherical starch granules was orally administered as a placebo for duloxetine together with water.
Specifically, during the TMS, the output of a magnetic stimulator (Magstim Rapid Square, manufactured by Magstim Co., Ltd.) was increased by 5% each time using 110 mm double cone coil, and the minimum output at which urethra-closing response occurred abruptly was determined and used as MT (%). The urethra-closing response was detected by measuring contractile responses within the urethra. The contractile response within the urethra was measured using Duet Logic G2 (manufactured by Mediwatch Ltd.) and UniTip (manufactured by Unisensor AG). MT was measured again after administration of each drug, and the rate of change (%) from the baseline was calculated. The rate of change was determined by dividing MT after administration of each drug by MT before administration.

human 5-HT2C receptors = target: T1, human 5-HT2C receptors (Homo sapiens, UniProt P28335); assay: In vitro test of agonistic potency on human 5-HT2C receptor (change in intracellular Ca2+); type: cell-based; settings: CHO-K1 cells expressing recombinant human 5-HT2C receptors; intracellular Ca2+ (Fluo-4)
T1 construct: expressed in transfected cells; host or cells: CHO-K1 cells
T1 sequence (P28335 33-458): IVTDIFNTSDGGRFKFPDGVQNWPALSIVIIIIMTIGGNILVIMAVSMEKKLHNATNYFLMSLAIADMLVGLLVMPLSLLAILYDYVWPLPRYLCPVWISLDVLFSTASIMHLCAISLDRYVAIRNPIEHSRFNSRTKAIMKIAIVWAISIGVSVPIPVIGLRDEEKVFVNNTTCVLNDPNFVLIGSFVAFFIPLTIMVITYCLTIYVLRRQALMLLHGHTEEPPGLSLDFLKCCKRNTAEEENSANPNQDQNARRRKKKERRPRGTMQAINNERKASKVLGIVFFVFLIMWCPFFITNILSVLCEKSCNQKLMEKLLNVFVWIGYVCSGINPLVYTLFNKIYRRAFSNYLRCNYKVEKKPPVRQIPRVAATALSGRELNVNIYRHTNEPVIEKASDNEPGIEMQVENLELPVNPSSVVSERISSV

anus-closing functions = assay: Rat anus-closing functions (Anal LPP) measured by high speed infusion of saline into the rectum; type: in vivo; settings: 5 minutes after administration, mean ± SEM
Source text: Thirty six female SD rats were used. After overnight fasting, rats were intraperitoneally administered with urethane for anesthesia, and isoflurane inhalation was further added during surgery. The abdomen was incised to expose the rectum, and a small incision of the rectum was made. A polyethylene catheter (SP61, Natsume) was inserted into the rectum through the rectum incision, and the tip of the catheter was positioned around 5 mm from the anal orifice. The other end of the catheter was connected with a pressure transducer and an infusion pump via three-way stopcocks, and the change in pressure in the rectum was measured using the pressure transducer, an electric signal amplifier, and an analog-to-digital converter. For administrating drugs, a polyethylene catheter (SP45, Natsume) was inserted into the femoral vein after exposing the vein by small incision.
After recovery period from surgery, while saline was infused at a speed of 0.1 mL/sec into the rectum using an infusion pump, change in the measured pressure—was observed. The infusion was stopped when the leakage of the saline from the anal orifice was observed. In the procedure, sudden decrease in the pressure was observed during the infusion with the leakage of saline from the anal orifice. The peak value of the pressure recorded in the rectum during the course of the procedures was defined as “an Anal LPP” in this Example. […] The Anal LPP was again measured in the same way 5 minutes after drug administration. The difference in Anal LPP from the Pre value (increased amount of Anal LPP) was calculated. Regarding change in Anal LPP before and after drug administration, the differences between the mean values of the drug-treated and vehicle-treated groups were analyzed by the one-tailed Williams' test or Student's t-test.

[1] = Body weight of obese rats (DIO-F344) under continuous subcutaneous administration and effective plasma concentration; type: in vivo, rat; settings: for Change in body weight (% change): mean ± SEM
Description: Forty male DIO-F344 rats bred with high fat diet (42 kcal % fat) were used. On the day before surgery, the rats were grouped on the basis of their body weight. Compound A′ and Compound B′ were each dissolved in saline. Osmotic pumps filled with the Compound A′ or Compound B′ solution were subcutaneously implanted in the rats under isoflurane anesthesia. The body weight just after surgery was used as a Pre value, and the body weight was measured every day until 14 days after surgery. Regarding the averages in the body weight on Day 14, the difference in the mean averages of the drug-treated group and the vehicle-treated group was analyzed by the one-tailed Williams' test.
The average Day 14 plasma concentration from the values of each rat measured in the morning and afternoon was used as a plasma concentration for the animal. The rate of change in body weight was calculated from the values measured just after and 14 days after osmotic pump implantation. The rate (average rate) of change of the vehicle group was subtracted from that of each drug-administered rat to plot the plasma concentration and the change in body weight. The plasma concentration at which the drug lowered the body weight by 3.8% was calculated by linear regression analysis.

[2] = tested on: urethra-closing reflex response; assay: Urethra-closing reflex response induced by intravesical pressure rise in rats; type: in vivo, rat; settings: 3 mg/kg i.d., mean ± SEM
Description: Thirty-two female rats of SD strain were used. The rats were anesthetized with urethane. Isoflurane inhalation was added during the surgery, if necessary. Their spinal cord was transected at the T8-T9 (the eighth thoracic cord—the ninth thoracic cord) level to eliminate the reflex voiding and to inhibit the transition from the urine storage phase to the voiding phase in the voiding cycle. After opening of the abdomen, the bladder neck was ligated with suture, and a catheter (PE-100) was inserted into the bladder. The bladder catheter was connected to a pressure transducer and a saline-containing reservoir via three-way stopcocks. A microtip transducer catheter was inserted from the urethral orifice toward the bladder so that its transducer was inserted into the urethra. Local change in pressure within the urethra (intraurethral pressure) was recorded via an electric signal amplifier and an analog-to-digital converter. […] Then, the reservoir was brought back to the original position to adjust the intravesical pressure to its baseline. Such change in intraurethral pressure induced by intravesical pressure rise was repeatedly measured, and the mean value from the last 2 trials was used as a Pre value. The vehicle used was 0.5% MC. […] Thirty minutes after administration, the change in intraurethral pressure induced by intravesical pressure rise was measured again and used as a Post value. The average value before intravesical pressure rise was subtracted from the average value during intravesical pressure rise, and the subtracted value was used as urethra-closing reflex response. The ratio of the Post value to the Pre value was calculated.

[3] = Plasma concentration of Compound A in healthy female volunteers after a single oral dose of Compound A′; settings: no unit in table (ng/mL)
Description: In each period, the test subjects received any of Treatments A to D once according to Table 10, and change in the plasma concentration of the administered compound was measured over 24 hours after each Treatment.
Specifically, 100 mL of the injectable water containing 20 mg or 90 mg of Compound A′ based on its free form was supplemented with a sweetener, and this solution was orally administered as Compound A′. As a placebo for Compound A′, 100 mL of the injectable water was supplemented with a sweetener, and this solution was orally administered.

[4] = 20 mg single oral dose, Predose
[5] = 90 mg single oral dose, Predose

For CC(C)N(C)c1cnc2c(n1)OCCNC2.Cl [Compound A′, N-methyl-N-(1-methylethyl)-6,7,8,9-tetrahydropyrazino[2,3-f][1,4]oxazeine-3-amine], the “maximum change from baseline in MT in response to TMS” value (urethra-closing response; 20 mg group, at 0.5 hours post dose) was −8.1%, the “MT of the urethra-closing response in response to TMS, Mean” value (urethra-closing response; 20 mg single oral dose, 0.5 hr) was 58.1% and the “Rate of change from baseline of MT of the urethra-closing response in response to TMS, Mean” value (“Rate of change” below) (urethra-closing response; 20 mg single oral dose, 0.5 hr) was −8.1%. For the same molecule, the “MT of the urethra-closing response in response to TMS, Mean” value (urethra-closing response; 20 mg single oral dose, 2 hr) was 59.0%, the “Rate of change” value (urethra-closing response; 20 mg single oral dose, 2 hr) was −7.3% and the “MT of the urethra-closing response in response to TMS, Mean” value (urethra-closing response; 20 mg single oral dose, 6 hr) was 64.2%. The “Rate of change” value (urethra-closing response; 20 mg single oral dose, 6 hr) was −2.1%, the “MT of the urethra-closing response in response to TMS, Mean” value (urethra-closing response; [4]) was 66.3% and the “maximum change from baseline in MT in response to TMS” value (urethra-closing response; 90 mg group, at 3 hours post dose) was −17.2%. The “MT of the urethra-closing response in response to TMS, Mean” value (urethra-closing response; 90 mg single oral dose, 0.5 hr) was 55.9%, the “Rate of change” value (urethra-closing response; 90 mg single oral dose, 0.5 hr) was −14.1% and the “MT of the urethra-closing response in response to TMS, Mean” value (urethra-closing response; 90 mg single oral dose, 2 hr) was 52.8%. The “Rate of change” value (urethra-closing response; 90 mg single oral dose, 2 hr) was −17.2%, the “MT of the urethra-closing response in response to TMS, Mean” value (urethra-closing response; 90 mg single oral dose, 6 hr) was 56.3% and the “Rate of change” value (urethra-closing response; 90 mg single oral dose, 6 hr) was −13.7%. The “MT of the urethra-closing response in response to TMS, Mean” value (urethra-closing response; [5]) was 70.0%, the EC50 (human 5-HT2C receptors) was 2.6 nM and the “Anal LPP Increase” value (anus-closing functions; 0.3 mg/kg i.v.) was 6.2 ± 3.1 cmH2O. For the same molecule, the “Anal LPP Increase” value (anus-closing functions; 1 mg/kg i.v.) was 30.2 ± 9.6 cmH2O, the “Change in body weight (% change)” value ([1]; 1.35 mg/animal/day s.c. osmotic pump, day 3) was −1.5 ± 0.5 % change and the “Change in body weight (% change)” value ([1]; 1.35 mg/animal/day s.c. osmotic pump, day 7) was −2.3 ± 0.8 % change. For the same molecule, the “Change in body weight (% change)” value ([1]; 1.35 mg/animal/day s.c. osmotic pump, day 10) was −4.5 ± 0.8 % change, the “Change in body weight (% change)” value ([1]; 1.35 mg/animal/day s.c. osmotic pump, day 14) was −4.7 ± 0.8 % change and the “Change in body weight (% change)” value ([1]; 4.5 mg/animal/day s.c. osmotic pump, day 3) was −0.6 ± 0.2 % change. The “Change in body weight (% change)” value ([1]; 4.5 mg/animal/day s.c. osmotic pump, day 7) was −2.4 ± 0.4 % change, the “Change in body weight (% change)” value ([1]; 4.5 mg/animal/day s.c. osmotic pump, day 10) was −3.9 ± 0.4 % change and the “Change in body weight (% change)” value ([1]; 4.5 mg/animal/day s.c. osmotic pump, day 14) was −4.6 ± 0.6 % change. The “Change in body weight (% change)” value ([1]; 13.5 mg/animal/day s.c. osmotic pump, day 3) was −2.7 ± 0.2 % change, the “Change in body weight (% change)” value ([1]; 13.5 mg/animal/day s.c. osmotic pump, day 7) was −4.8 ± 0.3 % change and the “Change in body weight (% change)” value ([1]; 13.5 mg/animal/day s.c. osmotic pump, day 10) was −6.9 ± 0.5 % change. For the same molecule, the “Change in body weight (% change)” value ([1]; 13.5 mg/animal/day s.c. osmotic pump, day 14) was −7.8 ± 0.5 % change, the “plasma concentration at which the drug lowered the body weight by 3.8%” value ([1]; DIO-F344 rats, day 14, vehicle-subtracted, linear regression analysis) was 670 ng/mL and the “Urethra-closing reflex response Post” value ([2]; 30 minutes after administration, intravesical pressure rise by 50 cm H2O) was 10.40 ± 1.78 cmH2O. For the same molecule, the “Urethra-closing reflex response Pre” value ([2]; before administration, intravesical pressure rise by 50 cm H2O) was 3.58 ± 0.42 cmH2O, the “Urethra-closing reflex response Ratio (Post/Pr)” value ([2]; ratio of Post value to Pre value) was 2.82 ± 0.29 and the “plasma concentration of compound A, Mean” value ([3]; 20 mg single oral dose, 0.5 hr) was 29.21. For the same molecule, the “plasma concentration of compound A, Median” value (from here on “plasma concentration … Median”) ([3]; 20 mg single oral dose, 0.5 hr) was 28.40, the “plasma concentration of compound A, Mean” value ([3]; 20 mg single oral dose, 1 hr) was 25.19 and the “plasma concentration … Median” value ([3]; 20 mg single oral dose, 1 hr) was 24.10. The “plasma concentration of compound A, Mean” value ([3]; 20 mg single oral dose, 2 hr) was 20.46, the “plasma concentration … Median” value ([3]; 20 mg single oral dose, 2 hr) was 19.20 and the “plasma concentration of compound A, Mean” value ([3]; 20 mg single oral dose, 3 hr) was 14.38. The “plasma concentration … Median” value ([3]; 20 mg single oral dose, 3 hr) was 13.10, the “plasma concentration of compound A, Mean” value ([3]; 20 mg single oral dose, 6 hr) was 3.476 and the “plasma concentration … Median” value ([3]; 20 mg single oral dose, 6 hr) was 3.760. For the same molecule, the “plasma concentration of compound A, Mean” value ([3]; 20 mg single oral dose, 8 hr) was 1.416, the “plasma concentration … Median” value ([3]; 20 mg single oral dose, 8 hr) was 1.590 and the “plasma concentration of compound A, Mean” value ([3]; 20 mg single oral dose, 12 hr) was 0.1327. The “plasma concentration … Median” value ([3]; 20 mg single oral dose, 12 hr) was 0.000, the “plasma concentration of compound A, Mean” value [3, 4] was 0.000 and the “plasma concentration … Median” value [3, 4] was 0.000. For the same molecule, the “plasma concentration of compound A, Mean” value ([3]; 90 mg single oral dose, 0.5 hr) was 127.3, the “plasma concentration … Median” value ([3]; 90 mg single oral dose, 0.5 hr) was 114.0 and the “plasma concentration of compound A, Mean” value ([3]; 90 mg single oral dose, 1 hr) was 126.0. For the same molecule, the “plasma concentration … Median” value ([3]; 90 mg single oral dose, 1 hr) was 113.0, the “plasma concentration of compound A, Mean” value ([3]; 90 mg single oral dose, 2 hr) was 152.8 and the “plasma concentration … Median” value ([3]; 90 mg single oral dose, 2 hr) was 145.0. For the same molecule, the “plasma concentration of compound A, Mean” value ([3]; 90 mg single oral dose, 3 hr) was 122.4, the “plasma concentration … Median” value ([3]; 90 mg single oral dose, 3 hr) was 127.0 and the “plasma concentration of compound A, Mean” value ([3]; 90 mg single oral dose, 6 hr) was 52.81. For the same molecule, the “plasma concentration … Median” value ([3]; 90 mg single oral dose, 6 hr) was 47.30, the “plasma concentration of compound A, Mean” value ([3]; 90 mg single oral dose, 8 hr) was 24.69 and the “plasma concentration … Median” value ([3]; 90 mg single oral dose, 8 hr) was 20.30. The “plasma concentration of compound A, Mean” value ([3]; 90 mg single oral dose, 12 hr) was 5.612, the “plasma concentration … Median” value ([3]; 90 mg single oral dose, 12 hr) was 4.450 and the “plasma concentration of compound A, Mean” value [3, 5] was 0.000. For the same molecule, the “plasma concentration … Median” value [3, 5] was 0.000.

From patent publication US20210052600A1, “THERAPEUTIC AGENTS FOR STRESS URINARY INCONTINENCE AND INCOTINENCE OF FECES” (Takeda Pharmaceutical Company Limited, priority 2017, published 2021)
